No end group written: not given here.
Tests used:
biotin-labeled DsbA [1] = molecular target: T1, biotin-labeled DsbA (Escherichia coli, UniProt P0AEG4); experiment: Peptide microarray binding of biotin-labeled DsbA, Cy5-streptavidin fluorescence detection; conditions: fluorescent signal intensity measured by peptide microarray
T1 construct: purchased abcam
T1 sequence (P0AEG4 20-208): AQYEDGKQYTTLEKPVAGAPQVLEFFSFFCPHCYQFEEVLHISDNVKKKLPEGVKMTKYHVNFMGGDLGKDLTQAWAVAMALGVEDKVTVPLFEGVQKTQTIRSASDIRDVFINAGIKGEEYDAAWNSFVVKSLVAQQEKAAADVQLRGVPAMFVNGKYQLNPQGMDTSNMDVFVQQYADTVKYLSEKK
Description: Briefly, the peptide array was synthesized by light-directed array synthesis in a Roche NimbleGen Maskless Array Synthesizer (MAS) using an amino-functionalized substrate as previously reported (Forsström, et al., “Proteome-wide Epitope Mapping of Antibodies Using Ultra-dense Peptide Arrays,” Molecular & Cellular Proteomics 13:1585-1597 (2014) and Lyamichev, et al., “Stepwise Evolution Improves Identification of Diverse Peptides Binding to a Protein Target,” Nature Scientific Reports 7:12116 (2017), both of which are incorporated herein by reference in their entireties). L-amino acids were synthesized by Orgentis Chemicals GmbH. Custom amino acids were purchased from Lifetein. Cy5™-streptavidin was purchased from GE Healthcare, Blocker™ BSA (10%) in PBS from ThermoFisher, and SecureSeal™ hybridization chambers from Grace Bio-Labs. Final side chain deprotection was performed by incubating the microarray in 60 mM EDT and 25 mM TIPS in 95% TFA (v/v) for 30 min at room temperature. The microarray was then washed twice in methanol for 30 seconds, once in 1×TBST for 1 min, twice in TBS for 30 seconds, and then spun dry in a microcentrifuge equipped with an array holder. […] Here, 2.6 μL biotin-labeled DsbA (1.5 mg/mL, abcam) was incubated on the array in 49 μL binding buffer containing 100 mM HEPES (pH 7.3), 1% BSA, 250 mM NaCl, 20 mM L-glutathione-reduced, and 0.2 mM L-glutathione-oxidized in a hybridization chamber overnight at 4° C. After incubation, arrays were washed in water for 15 seconds placed directly into a streptavidin-Cy5 detection bath. Positive binding to DsbA was determined by the detection of Streptavidin-Cy5. Streptavidin-Cy5 binding to all arrays was performed with 20 μL streptavidin-Cy5 (1 μg/mL) in 30 mL binding buffer containing 10 mM Tris-HCl (pH 7.4), 1% Casein, 0.05% Tween-20 in a 30 mL pap jar for 1 hour at room temperature. After incubation, arrays were washed in 20 mM Tris-HCl (pH 7.8), 0.2 M NaCl, 1% SDS for 30 seconds followed by a 30 seconds wash in water. The arrays were then dried by spinning in a microcentrifuge equipped with an array holder. Data was analyzed by measuring Cy5 fluorescence intensity of the arrays and extracting data, as previously described in Lyamichev, et al. (2017).
To narrow the number of possible 15-mer peptides in both libraries down to approximately 3 million peptides, a calculation was run to select for the maximum diversity of 6mer peptide sequences. Each 15-mer sequence was replicated two times.

biotin-labeled DsbA [2] = molecular target: T1, biotin-labeled DsbA; experiment: Biacore kinetic analysis of peptide binding to immobilized biotin-labeled DsbA
Description: The discovered and incrementally optimized novel DsbA-binding peptides were subject to kinetic characterization. Kinetic analysis of the interaction between the discovered peptides and DsbA was performed using a Biacore XI00. Biotin-labeled DsbA (1 uM) was immobilized on streptavidin coated chip (GE Healthcare) to a target level of 1,000 response units in HBS-P+. […] Fourteen dilutions of peptide from 5000 nM to 0.6 nM in HBS-P+ were flowed over the DsbA coated chip in triplicate with a contact time of 120 seconds and a dissociation time of 600 seconds. […] All peptides were amidated on the C-terminus.

Row | Substance | SIGNAL INTENSITY (biotin-labeled DsbA [1]) | koff (biotin-labeled DsbA [2]) [s⁻¹] | kon (biotin-labeled DsbA [2]) [M⁻¹ s⁻¹]
1 | DFWHGDTCKVTQFDQ-NH2 | 1750 | 0.0271 | 130000
2 | DFWHGEQCKVTQFDQ-NH2 | 4590 | 0.0139 | 259000
3 | DFWHGETCKVTQFDQ-NH2 | 1801 | 0.0185 | 220000
4 | HNWAAQCLKDQAKL-NH2 | 1759 | 0.0448 | 509000
5 | HNWAAQCLNPDQAKL-NH2 | 2640 | 0.0292 | 510000
6 | NDYQYKGQQCLDPKY-NH2 | 3623 | 0.0246 | 515000
7 | PSPWATCDF-NH2 | 82 | – | –
8 | SIIGMCYKKDPS-NH2 | 1365 | – | –
9 | VIGQCLKN-NH2 | 588 | – | –
10 | VILGQCLKQ-NH2 | 965 | – | –
11 | VIVGQCLKK-NH2 | 282 | – | –
12 | WQYENWAITKWQCVK-NH2 | 1427 | – | –
13 | YVYGMCWKDYTDTDK-NH2 | 2114 | 0.0627 | 538000
14 | YVYGMCWKDYTTDK-NH2 | 2297 | 0.057 | 728000

Reference: US12595591B2, “Peptide libraries having enhanced subsequence diversity and methods for use thereof” (ROCHE […], INC., priority 2019, dated 2026)
